15 compounds from patent publication US20250346597A1, “CONDENSED HETEROCYCLIC COMPOUNDS AS INHIBITOR OF DIACYLGLYCEROL KINASES” (BEONE MEDICINES I GMBH, priority 2023, published 2025) can be followed below.

The target of one experiment is DGKζ (Homo sapiens (Human), UniProt Q13574). The experiment in a line: Biochemical DGK IC50 assay (ADP-Glo, lipid micelle substrate), DGKζ. Particulars: full length DGKζ 0.5 nM, ATP 140 μM, DAG 80 μM. The gist of the method: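 ADP-Glo luminescence measured ADP made in a 1 h room-temperature reaction. The enzyme was Sf9-expressed, purified full-length human DGKζ, and the substrate was DAG/PS micelles. Assay buffer held 50 mM HEPES, 10 mM MgCl2, 0.01 mM CaCl2, 0.1 mM Na3VO4 and 0.01% BSA. IC50 was derived from activity inhibition over a compound concentration series.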
Chain of DGKζ (Q13574 other isoform, or with tags, fused parts or gaps): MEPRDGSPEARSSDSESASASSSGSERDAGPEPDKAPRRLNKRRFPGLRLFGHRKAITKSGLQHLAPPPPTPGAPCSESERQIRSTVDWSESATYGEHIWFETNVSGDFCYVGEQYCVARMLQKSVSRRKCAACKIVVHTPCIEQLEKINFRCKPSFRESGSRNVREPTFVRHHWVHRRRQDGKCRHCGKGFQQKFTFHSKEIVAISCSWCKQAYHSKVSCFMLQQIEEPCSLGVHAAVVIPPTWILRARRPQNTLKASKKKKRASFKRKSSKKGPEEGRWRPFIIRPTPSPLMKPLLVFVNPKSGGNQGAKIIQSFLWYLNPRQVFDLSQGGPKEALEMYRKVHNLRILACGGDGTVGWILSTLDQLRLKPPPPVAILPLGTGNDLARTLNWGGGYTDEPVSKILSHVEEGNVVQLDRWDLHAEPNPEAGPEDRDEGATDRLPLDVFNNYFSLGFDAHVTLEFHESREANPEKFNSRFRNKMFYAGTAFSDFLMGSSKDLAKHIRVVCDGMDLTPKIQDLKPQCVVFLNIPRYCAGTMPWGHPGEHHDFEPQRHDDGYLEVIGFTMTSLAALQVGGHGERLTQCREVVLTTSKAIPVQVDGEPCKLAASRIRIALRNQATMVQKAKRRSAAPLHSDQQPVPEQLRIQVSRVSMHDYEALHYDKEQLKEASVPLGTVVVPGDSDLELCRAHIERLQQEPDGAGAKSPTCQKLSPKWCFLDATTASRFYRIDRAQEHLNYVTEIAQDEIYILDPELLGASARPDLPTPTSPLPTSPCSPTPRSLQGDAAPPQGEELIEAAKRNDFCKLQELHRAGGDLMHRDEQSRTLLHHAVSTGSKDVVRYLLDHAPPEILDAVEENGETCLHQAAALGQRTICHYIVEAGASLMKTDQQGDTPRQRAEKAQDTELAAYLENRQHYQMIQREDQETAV

Another experiment concerns the target DGKα (Homo sapiens (Human), UniProt P23743). The experiment in a line: Biochemical DGK IC50 assay (ADP-Glo, lipid micelle substrate), DGKα. Also: full length DGKα 7.5 nM. Particulars: full length DGKα […], ATP 140 μM, DAG 80 μM. The gist of the method:
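Luminescent ADP-Glo detection followed a 1 h room-temperature reaction of full-length DGKα on DAG/PS micelles, in HEPES buffer with 10 mM MgCl2, 0.01 mM CaCl2, 0.1 mM Na3VO4, BSA and Tween-20. IC50 derived from inhibition across increasing compound concentrations.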

pIC50: −log10 of the molar value.

Chain of DGKα (P23743 whole entry): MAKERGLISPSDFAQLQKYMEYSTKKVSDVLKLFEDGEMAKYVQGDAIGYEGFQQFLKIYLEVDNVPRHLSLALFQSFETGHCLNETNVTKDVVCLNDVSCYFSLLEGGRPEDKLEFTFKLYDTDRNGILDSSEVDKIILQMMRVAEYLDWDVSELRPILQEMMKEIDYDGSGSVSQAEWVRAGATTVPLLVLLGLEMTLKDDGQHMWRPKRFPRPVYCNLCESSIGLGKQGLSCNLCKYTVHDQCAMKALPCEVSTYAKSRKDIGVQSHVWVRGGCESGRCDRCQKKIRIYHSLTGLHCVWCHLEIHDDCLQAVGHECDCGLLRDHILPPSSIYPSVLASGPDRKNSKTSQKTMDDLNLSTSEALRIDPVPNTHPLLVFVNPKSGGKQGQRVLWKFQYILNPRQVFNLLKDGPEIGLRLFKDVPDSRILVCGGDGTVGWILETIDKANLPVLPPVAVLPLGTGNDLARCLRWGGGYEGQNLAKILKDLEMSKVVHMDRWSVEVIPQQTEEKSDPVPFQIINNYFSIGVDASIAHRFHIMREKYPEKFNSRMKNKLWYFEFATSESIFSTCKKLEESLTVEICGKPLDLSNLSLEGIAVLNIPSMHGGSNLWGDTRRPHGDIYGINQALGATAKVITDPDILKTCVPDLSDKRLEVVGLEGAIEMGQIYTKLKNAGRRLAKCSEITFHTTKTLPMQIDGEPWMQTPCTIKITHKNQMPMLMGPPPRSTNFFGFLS

With `CC#CCn1cc2c(n1)c(N1C[C@@H](CC)N(C(C)c3ccc4sc(C)nc4c3F)C[C@@H]1CC)cc(=O)n2C` (single isomer, unassigned) [Compound A141a], the pIC50 against DGKζ is 7.75; against DGKα, 5.86.

As to `CC#CCn1cc2c(n1)c(N1C[C@@H](CC)N(C(C)c3ccc4sc(C)nc4c3F)C[C@@H]1CC)cc(=O)n2C` (single isomer, unassigned) [Compound A141b], the pIC50 at DGKζ is 6.19; against DGKα it was 5.21.

In the case of `[2H]C([2H])([2H])C(c1ccc2nc(C)sc2n1)N1C[C@H](CC)N(c2cc(=O)n(C([2H])([2H])[2H])c3cn(CC#N)nc23)C[C@H]1CC` (single isomer, unassigned) [Compound A142a], the pIC50 was 5.87 at DGKζ and 5.80 against DGKα.

On to `[2H]C([2H])([2H])C(c1ccc2nc(C)sc2n1)N1C[C@H](CC)N(c2cc(=O)n(C([2H])([2H])[2H])c3cn(CC#N)nc23)C[C@H]1CC` (single isomer, unassigned) [Compound A142b], for which the pIC50 on DGKζ is 7.70; against DGKα it was 6.97.

For the compound `CC[C@H]1CN(C(C)c2ccc3nc(COC)sc3n2)[C@H](CC)CN1c1cc(=O)n(C)c2cn(CC#N)nc12` (single isomer, unassigned) [Compound A143a], the results for the pIC50 on DGKζ and against DGKα were 5.67 and 5.50, respectively.

For the compound `CC[C@H]1CN(C(C)c2ccc3nc(COC)sc3n2)[C@H](CC)CN1c1cc(=O)n(C)c2cn(CC#N)nc12` (single isomer, unassigned) [Compound A143b], the negative logarithm of the IC50 (pIC50) against DGKζ was 7.41; at DGKα, 6.82.

Regarding `CC[C@H]1CN(C(C)c2ccc3cc(C(F)F)sc3n2)[C@H](CC)CN1c1cc(=O)n(C)c2cn(CC#N)nc12` (single isomer, unassigned) [Compound A144a], the values for the pIC50 at DGKζ and on DGKα were 5.89 and 6.57, respectively.

Take `CC[C@H]1CN(C(C)c2ccc3cc(C(F)F)sc3n2)[C@H](CC)CN1c1cc(=O)n(C)c2cn(CC#N)nc12` (single isomer, unassigned) [Compound A144b]: the negative-log IC50 (pIC50) was 6.87 at DGKζ and 7.74 against DGKα.

As for `CC[C@H]1CN(C(C)c2ccc3nc(COC)sc3c2)[C@H](CC)CN1c1cc(=O)n(C)c2cn(CC#N)nc12` (single isomer, unassigned) [Compound A145a], the pIC50 was 7.33 on DGKζ and 6.26 on DGKα.

For the compound `CC[C@H]1CN(C(C)c2ccc3nc(COC)sc3c2)[C@H](CC)CN1c1cc(=O)n(C)c2cn(CC#N)nc12` (single isomer, unassigned) [Compound A145b], the negative logarithm of the IC50 (pIC50) is 6.03 against DGKζ and 5.47 against DGKα.

For `CC[C@H]1CN(C(C)c2ccc3nc(OC4CC4)sc3n2)[C@H](CC)CN1c1cc(=O)n(C)c2cn(CC#N)nc12` (single isomer, unassigned) [Compound A146a], the negative logarithm of the IC50 (pIC50) against DGKζ is 5.76; against DGKα, 5.62.

Take `CC[C@H]1CN(C(C)c2ccc3nc(OC4CC4)sc3n2)[C@H](CC)CN1c1cc(=O)n(C)c2cn(CC#N)nc12` (single isomer, unassigned) [Compound A146b]: the figures for the negative-log IC50 (pIC50) on DGKζ and against DGKα were 6.98 and 6.69, respectively.

For the compound `CC[C@H]1CN(C(C)c2ccc3nc(OCCF)sc3n2)[C@H](CC)CN1c1cc(=O)n(C)c2cn(CC#N)nc12` (single isomer, unassigned) [Compound A147a], the pIC50 against DGKζ is 6.82; at DGKα, 6.74.

Take `CC[C@H]1CN(C(C)c2ccc3nc(OCCF)sc3n2)[C@H](CC)CN1c1cc(=O)n(C)c2cn(CC#N)nc12` (single isomer, unassigned) [Compound A147b]: the values for the negative logarithm of the IC50 (pIC50) on DGKζ and against DGKα were 5.82 and 5.80, respectively.

On to `CC[C@H]1CN(C(C)c2ccc3cc(C(F)F)sc3n2)[C@H](CC)CN1c1nc(=O)n(C)c2cn(CC#N)nc12` (single isomer, unassigned) [Compound A148a], for which the negative-log IC50 (pIC50) at DGKζ was 5.64; at DGKα, 5.89.
